{"source": "ChEMBL document CHEMBL2429731", "about": "“Using genetic methods to define the targets of compounds with antimalarial activity” (J Med Chem, 2013)", "key": {"[1]": {"tested_on": "Plasmodium yoelii", "experiment": "Antimalarial activity against sporozoite stage of Plasmodium yoelii assessed as invasion of human HepG2 cells expressing CD81 incubated for 2 hrs prior to inoculation measured after 1 hr by immunofluorescence assay in presence of penicillin/streptomycin", "type": "functional, organism-based"}, "[2]": {"tested_on": "Plasmodium berghei", "experiment": "Antimalarial activity against gametocytic stage of Plasmodium berghei infected in blood assessed as inhibition of ookinete formation at 10 uM after 24 hrs by Giemsa staining-based microscopic analysis relative to control", "type": "functional"}}, "data": [{"compound": "COc1cc(N[C@H](C)CCCN)c2nccc(C)c2c1Oc1ccc(Cl)c(Cl)c1", "values": [{"measurement": "IC50", "setting": "[1]", "result": "< 1000", "unit": "nM"}]}, {"compound": "CCc1nc(N)nc(N)c1OCCCOc1ccccc1CCC(=O)O", "values": [{"measurement": "IC50", "setting": "[1]", "result": "< 1000", "unit": "nM"}]}, {"compound": "CO[C@H]1O[C@@H]2O[C@@]3(C)CC[C@H]4[C@H](C)CC[C@@H]([C@H]1C)[C@@]24OO3", "note": "[ARTEMETHER]", "values": [{"measurement": "IC50", "setting": "[1]", "result": "< 1000", "unit": "nM"}]}, {"compound": "C[C@H]1[C@@H](O)O[C@@H]2O[C@@]3(C)CC[C@H]4[C@H](C)CC[C@@H]1[C@@]24OO3", "note": "[ARTENIMOL]", "values": [{"measurement": "IC50", "setting": "[1]", "result": "< 1000", "unit": "nM"}]}, {"compound": "C[C@H]1[C@H](OC(=O)CCC(=O)O)O[C@@H]2O[C@@]3(C)CC[C@H]4[C@H](C)CC[C@@H]1[C@@]24OO3", "note": "[ARTESUNATE]", "values": [{"measurement": "IC50", "setting": "[1]", "result": "< 1000", "unit": "nM"}]}, {"compound": "O=C1C(O)=C([C@H]2CC[C@H](c3ccc(Cl)cc3)CC2)C(=O)c2ccccc21", "note": "[ATOVAQUONE]", "values": [{"measurement": "inhibition at 10 µM", "setting": "[2]", "result": "< 50", "unit": "%"}, {"measurement": "IC50", "setting": "[1]", "result": "< 1000", "unit": "nM"}]}, {"compound": "CN(C)c1ccc2nc3ccc(N(C)C)cc3[s+]c2c1", "note": "[METHYLENE BLUE ANHYDROUS]", "values": [{"measurement": "inhibition at 10 µM", "setting": "[2]", "result": "< 50", "unit": "%"}, {"measurement": "IC50", "setting": "[1]", "result": "< 1000", "unit": "nM"}]}, {"compound": "COc1cc(NC(C)CCCN)c2ncccc2c1", "note": "(configuration not stated) [PRIMAQUINE]", "values": [{"measurement": "inhibition at 10 µM", "setting": "[2]", "result": "< 50", "unit": "%"}, {"measurement": "IC50", "setting": "[1]", "result": "< 1000", "unit": "nM"}]}, {"compound": "CCc1nc(N)nc(N)c1-c1ccc(Cl)cc1", "note": "[PYRIMETHAMINE]", "values": [{"measurement": "inhibition at 10 µM", "setting": "[2]", "result": "< 50", "unit": "%"}, {"measurement": "IC50", "setting": "[1]", "result": "< 1000", "unit": "nM"}]}, {"compound": "COc1ccc2nc3cc(Cl)ccc3c(Nc3cc(CN4CCCC4)c(O)c(CN4CCCC4)c3)c2n1", "note": "[PYRONARIDINE]", "values": [{"measurement": "inhibition at 10 µM", "setting": "[2]", "result": "< 50", "unit": "%"}, {"measurement": "IC50", "setting": "[1]", "result": "< 1000", "unit": "nM"}]}, {"compound": "C=C[C@H]1CN2CC[C@H]1C[C@H]2[C@H](O)c1ccnc2ccc(OC)cc12", "note": "[QUININE]", "values": [{"measurement": "inhibition at 10 µM", "setting": "[2]", "result": "< 50", "unit": "%"}]}, {"compound": "COc1cc(C)c2c(Oc3cccc(C(F)(F)F)c3)c(OC)cc(NC(C)CCCN)c2n1", "note": "(configuration not stated) [TAFENOQUINE]", "values": [{"measurement": "IC50", "setting": "[1]", "result": "< 1000", "unit": "nM"}]}]}
